Legend:
Format in all cases: in vivo
[1] = test system: plasma osteocalcin; experiment: Study A: prednisolone-induced osteocalcin reduction in rats; details: prednisolone 10 mg/kg po, 4 hour time point
Text: Prednisolone (active GC) administration to rats induces a variety of acute physiological effects including an increase in liver tyrosine amino transferase, increase in serum free fatty acids, increase in liver glycogen levels, hyperglycemia, decrease in osteocalcin, among others. Osteocalcin is of particular interest since a decrease in this hormone leads to decreased bone formation, increasing the potential for osteoporosis. Administration of an 11β-HSD-1 inhibitor would be expected to reduce local reactivation of prednisolone from prednisone in the bone or relevant tissue, and thereby reduce loss of osteocalin levels. […] Prednisone is reactivated, however, to prednisolone in the liver, bone and other tissues where 11β-HSD-1 is expressed. By blocking this reactivation through the use of an 11β-HSD-1 inhibitor, the exposure of active glucocorticoid in bone would be minimized. […] To validate this hypothesis, effects of the 11β-HSD-1 inhibitor (compound A) on prednisolone-induced osteocalcin reduction was evaluated in rats using two separate protocols as indicated in the Table 8 below.
In Study A, rats were pre-dosed with Compound A at 30 mg/kg 1 hour prior to administration with the active glucocorticoid, prednisolone, at 10 mg/kg, po. At 2 and 4 hours after dosing prednisolone, rats were sacrificed, and blood evaluated for levels of osteocalcin.

[2] = test system: Osteocalcin; experiment: Mouse model of glucocorticoid-induced osteoporosis: plasma osteocalcin; details: mice, control diet
Text: (§1) Purpose: The purpose of this experiment was to determine if inhibiting 11β-HSD-1 in mice results in protection from prednisolone-induced bone loss over a 28-day period, while maintaining the same anti-inflammatory efficacy against lipopolysaccharide(LPS)-induced TNFα.
(§2) Animals: Female Swiss Webster mice from Charles River Laboratories (CFW mice) were used in this study. Mice were 10 weeks old at the start of the study. Two identical prednisolone dose responses were run with a vehicle control (n=12), 5, 1.5, and 0.5 mg/kg dosed for 28 days (n=8 each), and 1.5 mg/kg dosed for 27 days (n=8, to determine if prednisolone needed to be on board to affect tumor necrosis factor-alpha(TNFα), procollagen type 1 N-terminal propeptide(P1NP), and Osteocalcin). […] The total number of animals used was 88.
(§3) Experimental Design: All animals were placed on the control diet (Research Diets Rodent Diet with 60 kcal % Fat: D12492i) upon arrival. […] Also on this day, animals were weighed for baselines and ear-tagged for identification. On day 1 of the study, all animals were injected intraperitoneally (i.p.) with 10 mg/kg of calcein (Sigma #C0875) in 2% sodium bicarbonate (Sigma #S6014, dissolved in deionized water). […] On day 27, 4 animals from each vehicle control group were challenged with 5 mg/kg of 11-dehydrocorticosterone (11-DHC [Steraloids #Q3690-000]) p.o., and plasma was collected 30 minutes later for corticosterone analysis by mass spec. […] Thirty minutes later, all groups were challenged with 0.1 mg/kg of LPS (Sigma #L4130) to induce TNFα. […] Right leg bones, left leg bones, and the spinal columns of all mice were collected and stored as follows:
Osteocalcin was measured using the Millipore Milliplex Mouse Osteocalcin Single-Plex Kit. The protocol was followed exactly as outlined in the kit. Samples were read on a BioRad Bio-Plex System, model # Luminex 100 and Bio-Plex Manager 4.1.1 software.

[3] = test system: TNFα; experiment: Mouse model of glucocorticoid-induced osteoporosis: LPS-induced TNFα; details: mice, LPS 0.1 mg/kg challenge, control diet
Text: as §1, §2, §3
TNFα was measured using the Mouse […] Quantikine ELISA kit from R&D Systems. The protocol was followed as outlined in the kit. Samples were read using a Molecular Devices Spectra Max 250 plate reader and Soft Max Pro 4.8 software.

[4] = test system: Trabecular bone at Femoral Metaphysis; experiment: Mouse model of glucocorticoid-induced osteoporosis: femur histomorphometry; details: mice, control diet
Text: as §1, §2, §3
Left leg bones were removed, cleaned, and cut identically to the right leg bones. However, left legs were separated at the knee joint by carefully teasing apart with a scalpel.
Femurs were fixed in 4% paraformaldehyde for 48 hours, and transferred to 30% sucrose for 24 hours before embedding in a CMC (carboxymethylcellulose) block. Blocks were frozen in liquid nitrogen-cooled hexanes (−60° C. or colder) for 3-5 minutes, and stored at −80° C. Femurs were then sectioned on a cryomicrotome.
Bone was measured from 8-10 fields per femur, with each field being 400×500 microns in size. All dynamic measurement calculations were made from scoring the second and third fluorochrome labels, which were administered 11 days apart. OsteoMeasure software was used to obtain all values.
Bone formation rate/bone volume (BFR/BV) refers to the volume of new bone formed per unit of time, and is measured as a percent per day. BFR is the most significant measure of bone formation.
Mineral apposition rate (MAR) refers to the distance between two fluorochrome labels divided by the number of days between label administration, and is indicative of osteoblastic activity.
Double labeled surface/bone surface (dLS/BS) refers to the percentage of trabecular bone surface which is double-labeled, and is another readout indicative of bone formation.

[5] = test system: P1NP (N-terminal propeptide of type I procollagen); experiment: Mouse model of glucocorticoid-induced osteoporosis: plasma P1NP; details: mice, control diet
Text: as §1, §2, §3
N-terminal propeptide of type I procollagen (PINP) was measured using the Rat/Mouse PINP EIA kit from Immunodiagnostic Systems. The protocol was followed as outlined in the kit, except for that sample dilutions were made in a separate plate instead of directly in the ELISA plate. Samples were read using a Molecular Devices Spectra Max 190 plate reader and Soft Max Pro 5.2 software.

[6] = test system: plasma osteocalcin; experiment: Study B: prednisone-induced osteocalcin reduction in rats; details: vehicle pre-treatment, prednisone 10 mg/kg po, 4 hours later
Text: Prednisolone (active GC) administration to rats induces a variety of acute physiological effects including an increase in liver tyrosine amino transferase, increase in serum free fatty acids, increase in liver glycogen levels, hyperglycemia, decrease in osteocalcin, among others. Osteocalcin is of particular interest since a decrease in this hormone leads to decreased bone formation, increasing the potential for osteoporosis. Administration of an 11β-HSD-1 inhibitor would be expected to reduce local reactivation of prednisolone from prednisone in the bone or relevant tissue, and thereby reduce loss of osteocalin levels. […] Prednisone is reactivated, however, to prednisolone in the liver, bone and other tissues where 11β-HSD-1 is expressed. By blocking this reactivation through the use of an 11β-HSD-1 inhibitor, the exposure of active glucocorticoid in bone would be minimized. This example would pertain to normal older individuals as well where cortisol levels increase with age, and likely contribute to age-dependent osteoporosis. This would be an acute study design. To validate this hypothesis, effects of the 11β-HSD-1 inhibitor (compound A) on prednisolone-induced osteocalcin reduction was evaluated in rats using two separate protocols as indicated in the Table 8 below.

| SMILES | plasma osteocalcin after prednisolone [1] | % Inhibition of Osteocalcin, (−) Inhibitor ([2]; prednisolone 0.5 mg/kg) [%] | % Inhibition of Osteocalcin, (−) Inhibitor ([2]; prednisolone 5 mg/kg) [%] | % Inhibition of TNFα, (−) Inhibitor ([3]; prednisolone 0.5 mg/kg) [%] | % Inhibition of TNFα, (−) Inhibitor ([3]; prednisolone 5 mg/kg) [%] | % Inhibition of TNFα, (−) Inhibitor ([3]; prednisolone […]) [%] | % Increase in dLS/BS, (−) Inhibitor ([4]; prednisolone 0.5 mg/kg) | % Inhibition of BFR/BV, (−) Inhibitor ([4]; prednisolone 0.5 mg/kg) | % Inhibition of MAR, (−) Inhibitor ([4]; prednisolone 0.5 mg/kg) [%] | % Increase in dLS/BS, (−) Inhibitor ([4]; prednisolone 5 mg/kg) | % Inhibition of BFR/BV, (−) Inhibitor ([4]; prednisolone 5 mg/kg) [%] | % Inhibition of MAR, (−) Inhibitor ([4]; prednisolone 5 mg/kg) [%] | % Inhibition of P1NP, (−) Inhibitor ([5]; prednisolone 0.5 mg/kg p.o. daily 28 days) [%] | % Inhibition of P1NP, (−) Inhibitor ([5]; prednisolone 5 mg/kg p.o. daily 28 days) [%] | plasma osteocalcin after prednisone challenge [6] |
| --- | --- | --- | --- | --- | --- | --- | --- | --- | --- | --- | --- | --- | --- | --- | --- |
| C[C@]12C=CC(=O)C=C1CC[C@@H]1[C@@H]2[C@@H](O)C[C@@]2(C)[C@H]1CC[C@]2(O)C(=O)CO [Prednisolone, prednisolone, reference compound] | significant reductions in plasma osteocalcin | 10 | 45 | 80 | 98 | 95 | No Increase | No Inhibition | 33 | No Increase | 27 | 52 | 33 | 51 | – |
| C[C@]12C=CC(=O)C=C1CC[C@@H]1[C@@H]2C(=O)C[C@@]2(C)[C@H]1CC[C@]2(O)C(=O)CO [prednisone] | – | – | – | – | – | – | – | – | – | – | – | – | – | – | significant reduction in plasma osteocalcin |

Source: US8871208B2, “11-β-hydroxysteroid dehydrogenase type 1 (11β-HSD1) inhibitors and uses thereof” (AbbVie Inc., priority 2009, dated 2014)
